Data from patent US20020039567A1, “Methods of treating bone or cartilage conditions by the administration of creatine” (priority 1998, published 2002).

What was measured:
[1] = test system: epiphyseal growth plate; conditions: feeding rats with GPA; cited from earlier work
[2] = test system: osteoblasts (monolayer culture); experiment: Alkaline phosphatase activity (histochemically), monolayer osteoblast cell culture; type: cell-based, rat; conditions: 3 weeks
Protocol: This isolation technique is based on the ability of osteoblasts to migrate from bone onto a substratum. Parietal and frontal calvariae (4 per animal) were aseptically explanted from 6 day-old IcoIbm rats. The calvariae were placed in Tyrode's balanced salt solution, calcium and magnesium free (TESS). The periosteum was enzymatically removed with 0.05% trypsin and 0.02% collagenase A (0.76 U/mg) dissolved in TBSS (40 calvaria/20 ml). The calvariae were shaken for 70 minutes in a waterbath at 37° C. They were washed with TESS and then transferred to 60 mm culture dishes (40 calvariae/dish) containing 5 ml of 0.02% collagenase A (0.76 U/mg) in culture medium BGJb Fitton-Jackson modification and placed in the incubator for 4 hours. The calvariae were then washed with culture medium B supplemented with 10% foetal calf serum (FCS). The calvariae were transferred into 60 mm culture dishes (4 frontal and 4 parietal/dish). The growth medium supplemented with 10% FCS and 50 μg/ml ascorbate was completely changed every 48 hours. The culture was kept for 3 weeks. After 3 weeks the migrated cells were harvested. The dish was washed with TESS, and 5 ml of TESS containing 0.05% trypsin and 0.02% collagenase A (0.76 U/mg) was added. […] The viability of the resuspended cells was examined by the dye exclusion of 0.4% trypan blue, and the cells were counted in a haeinocytometer. […]

[3] = test system: osteoblasts (micromass culture); experiment: Cell viability (neutral red uptake), micromass osteoblast cell culture; type: cell-based, rat; conditions: 20 mM creatine; 3 weeks; vs control (p<0.005) and 10 mM creatine (p<0.003)
Protocol: This isolation technique is based on the ability of osteoblasts to migrate from bone onto a substratum. Parietal and frontal calvariae (4 per animal) were aseptically explanted from 6 day-old IcoIbm rats. The calvariae were placed in Tyrode's balanced salt solution, calcium and magnesium free (TESS). The periosteum was enzymatically removed with 0.05% trypsin and 0.02% collagenase A (0.76 U/mg) dissolved in TBSS (40 calvaria/20 ml). The calvariae were shaken for 70 minutes in a waterbath at 37° C. They were washed with TESS and then transferred to 60 mm culture dishes (40 calvariae/dish) containing 5 ml of 0.02% collagenase A (0.76 U/mg) in culture medium BGJb Fitton-Jackson modification and placed in the incubator for 4 hours. The calvariae were then washed with culture medium B supplemented with 10% foetal calf serum (FCS). The calvariae were transferred into 60 mm culture dishes (4 frontal and 4 parietal/dish). The growth medium supplemented with 10% FCS and 50 μg/ml ascorbate was completely changed every 48 hours. The culture was kept for 3 weeks. […] The viability of the resuspended cells was examined by the dye exclusion of 0.4% trypan blue, and the cells were counted in a haeinocytometer. […] The absorbance of the supernatant (3 aliquots/dish) was read at 540 nm versus extraction buffer. […] If the absorbance was higher than 1, the samples were diluted with extraction buffer.

[4] = test system: embryonic chick femora; conditions: cited from earlier work

Compound	epiphyseal growth plate morphology [1]	cell density around the nodules ([2]; GPA groups)	staining pattern for the ALP activity ([2]; higher magnification, compared with control and creatine groups)	NR uptake [3]	perichondral ossification in the diaphysis ([4]; 0.1 mM in chick embryo extract with 20% horse serum)	deposition of calcium in the cartilage matrix of the epiphysis ([4]; very crude preparations at 0.1 mM in chick embryo extract with 20% horse serum)
N=C(N)NCCC(=O)O [GPA, beta-guanidinopropionic acid]	marked abnormalities	lower than in the control and the creatine groups	different staining pattern			
CN(CC(=O)O)C(=N)N [creatine]				significantly lower NR uptake	accelerated	accelerated
